US8410310B2, “Trypsin-like serine protease inhibitors, and their preparation and use” (The Medicines Company (Leipzig) GmbH, priority 2006, dated 2013)
Like-named read-outs stand apart in the source and are kept apart here.

Tests used:
Format in all cases: biochemical
plasmin = plasmin (Homo sapiens, UniProt P00747); experiment: Determination of inhibition constants for plasmin; parameters: purchased Calbiochem
Method: (§1) The inhibitory effect for the individual enzymes was determined in analogy to a previously disclosed method (Stürzebecher et al., 1997).
(§2) For zero order kinetics, the reaction was stopped after 20 min by adding 25 μl of acetic acid (50% v/v), and the absorption at 405 nm was determined using a Microplate Reader (Multiscan Ascent, from Thermo). In the case of pseudo-first order kinetics, the reaction rates in the equilibrium state were ascertained by recording the reaction kinetics. The Ki values were ascertained either in accordance with Dixon (1953) by linear regression using a computer program or by parameter fitting in accordance with the rate equation for competitive inhibition. The Ki values are the average of at least two determinations.

Xa = Xa (Homo sapiens, UniProt P00742); experiment: Determination of inhibition constants for Xa
Method: as §1, §2

plasma kallikrein = plasma kallikrein (Homo sapiens, UniProt P03952); experiment: Determination of inhibition constants for PK; parameters: purchased Enzyme Research Lab. / Enzyme Research Laboratories
Method: as §1, §2

Thrombin = Thrombin (Homo sapiens, UniProt P00734); experiment: Determination of inhibition constants for thrombin
Method: as §1, §2

[1] = 25° C., substrate Chromozym PL, pH 8.0, read-out: Plasmin [Ki]
[2] = 25° C., substrate S2302, pH 8.0, read-out: PK [Ki]
[3] = summary of results, read-out: Ki value of the plasma kallikrein inhibition

plasma kallikrein, sequence (P03952 391-638 limits assumed): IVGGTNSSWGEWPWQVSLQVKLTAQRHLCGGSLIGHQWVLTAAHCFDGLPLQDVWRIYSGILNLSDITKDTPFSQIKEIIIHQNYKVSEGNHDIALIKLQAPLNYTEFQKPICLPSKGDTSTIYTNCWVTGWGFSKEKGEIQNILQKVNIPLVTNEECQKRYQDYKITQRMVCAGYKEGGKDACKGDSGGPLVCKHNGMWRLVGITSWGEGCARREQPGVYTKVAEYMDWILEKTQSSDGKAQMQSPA
plasma kallikrein, sequence (P03952 20-390 partner limits assumed): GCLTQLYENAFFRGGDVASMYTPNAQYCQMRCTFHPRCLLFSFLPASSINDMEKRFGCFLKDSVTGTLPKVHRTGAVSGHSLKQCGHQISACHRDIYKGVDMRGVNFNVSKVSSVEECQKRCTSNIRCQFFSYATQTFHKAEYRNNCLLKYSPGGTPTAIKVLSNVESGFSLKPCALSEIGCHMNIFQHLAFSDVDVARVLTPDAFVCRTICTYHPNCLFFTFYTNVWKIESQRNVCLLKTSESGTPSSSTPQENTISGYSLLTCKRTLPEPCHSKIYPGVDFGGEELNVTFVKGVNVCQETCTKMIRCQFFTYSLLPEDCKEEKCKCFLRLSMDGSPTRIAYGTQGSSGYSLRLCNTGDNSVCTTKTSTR
Xa, sequence (P00742 235-488 limits assumed): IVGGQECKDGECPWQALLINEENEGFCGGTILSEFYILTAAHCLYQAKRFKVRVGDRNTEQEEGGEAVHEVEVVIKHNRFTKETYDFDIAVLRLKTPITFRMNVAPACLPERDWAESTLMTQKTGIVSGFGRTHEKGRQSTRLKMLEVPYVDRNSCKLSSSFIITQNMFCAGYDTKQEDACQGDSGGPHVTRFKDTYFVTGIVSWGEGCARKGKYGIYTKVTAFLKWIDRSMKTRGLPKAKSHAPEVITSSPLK
Xa, sequence (P00742 41-179 limits assumed): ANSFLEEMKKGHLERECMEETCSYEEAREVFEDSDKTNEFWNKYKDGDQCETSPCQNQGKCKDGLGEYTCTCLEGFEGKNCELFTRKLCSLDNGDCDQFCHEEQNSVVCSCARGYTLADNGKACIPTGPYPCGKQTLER
plasmin, sequence (P00747 581-810 limits assumed): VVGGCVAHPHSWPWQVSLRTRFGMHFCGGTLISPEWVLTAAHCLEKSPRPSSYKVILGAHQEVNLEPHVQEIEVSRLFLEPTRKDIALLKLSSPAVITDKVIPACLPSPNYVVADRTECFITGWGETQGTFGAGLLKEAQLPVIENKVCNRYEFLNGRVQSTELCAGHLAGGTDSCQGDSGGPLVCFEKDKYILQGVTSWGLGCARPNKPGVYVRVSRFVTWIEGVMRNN
plasmin, sequence (P00747 97-580 partner limits assumed): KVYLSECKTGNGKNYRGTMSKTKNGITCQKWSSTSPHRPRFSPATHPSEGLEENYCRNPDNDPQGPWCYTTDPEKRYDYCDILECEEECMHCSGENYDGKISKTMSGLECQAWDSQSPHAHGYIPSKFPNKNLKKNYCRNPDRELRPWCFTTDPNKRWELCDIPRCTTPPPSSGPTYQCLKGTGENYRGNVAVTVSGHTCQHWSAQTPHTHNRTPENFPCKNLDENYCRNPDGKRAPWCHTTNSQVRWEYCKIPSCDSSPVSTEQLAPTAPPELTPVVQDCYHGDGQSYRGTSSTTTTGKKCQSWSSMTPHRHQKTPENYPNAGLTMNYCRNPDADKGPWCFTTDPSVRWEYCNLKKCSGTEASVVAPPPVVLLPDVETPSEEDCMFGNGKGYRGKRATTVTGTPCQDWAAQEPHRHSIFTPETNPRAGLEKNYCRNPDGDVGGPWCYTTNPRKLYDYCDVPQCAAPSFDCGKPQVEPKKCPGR

Row | Compound | Ki (plasmin; [1]) [µM] | Ki (Xa) [µM] | Ki (plasma kallikrein; [2]) [µM] | Ki (plasma kallikrein; [3]) [µM] | Ki (Thrombin) [µM] | Ki (plasmin; summary of results, read-out: Ki value of the plasmin inhibition) [µM]
1 | N=C(N)c1ccc(CNC(=O)[C@H](CCc2ccncc2)NC(=O)[C@@H](CCCc2ccccc2)NS(=O)(=O)Cc2cccc(C(=O)O)c2)cc1 [compound 40] | < 0.01 | < 1 | < 0.01 | < 0.001 | < 0.1 | 
2 | N=C(N)c1ccc(CNC(=O)[C@H](CCc2cc[n+]([O-])cc2)NC(=O)[C@@H](CCCc2ccccc2)NS(=O)(=O)Cc2ccccc2)cc1 [compound 41] | < 0.01 | < 1 | < 0.01 |  | < 0.1 | 
3 | N=C(N)c1ccc(CNC(=O)[C@H](CCc2cc[n+]([O-])cc2)NC(=O)[C@@H](CCCc2ccccc2)NS(=O)(=O)Cc2cccc(C(=O)O)c2)cc1 [compound 42] | < 0.1 | > 1 | < 0.01 |  | < 1 | 
4 | N=C(N)c1ccc(CNC(=O)[C@H](CCc2ccncc2)NC(=O)[C@@H](CCc2ccccc2)NS(=O)(=O)Cc2ccccc2)cc1 [compound 44] | < 0.1 | < 0.1 | < 0.1 |  | < 0.1 | 
5 | N#Cc1cccc(C[C@@H](NS(=O)(=O)Cc2ccccc2)C(=O)N[C@@H](CCc2ccncc2)C(=O)NCc2ccc(C(=N)N)cc2)c1 [compound 45] | < 0.01 | < 1 | < 0.01 |  | < 0.1 | 
6 | N=C(N)c1ccc(CNC(=O)[C@H](CCc2ccncc2)NC(=O)[C@H](NS(=O)(=O)Cc2ccccc2)C2Cc3ccccc3C2)cc1 [compound 46] | < 0.01 | < 1 | < 0.01 |  | < 0.1 | < 0.005
7 | N=C(N)c1ccc(CNC(=O)[C@H](CCc2ccncc2)NC(=O)[C@@H](CCc2ccc(O)cc2)NS(=O)(=O)Cc2ccccc2)cc1 [compound 47] | < 0.01 | < 0.01 | < 0.01 |  | < 0.01 | 
8 | N=C(N)c1ccc(CNC(=O)[C@H](CCCc2ccccc2)NC(=O)[C@@H](CCc2ccncc2)NS(=O)(=O)Cc2ccccc2)cc1 [compound 48] | < 0.01 | < 0.01 | < 0.01 |  | < 1 | 
9 | N=C(N)c1ccc(CNC(=O)[C@H](CCc2ccccc2)NC(=O)[C@@H](CCCc2cccnc2)NS(=O)(=O)Cc2cccc(C(=O)O)c2)cc1 [compound 52] | < 0.01 | < 0.01 | < 0.01 |  | < 0.1 | 
10 | N=C(N)c1ccc(CNC(=O)[C@H](CCc2ccccc2)NC(=O)[C@@H](CCCc2ccc[n+]([O-])c2)NS(=O)(=O)Cc2ccccc2)cc1 [compound 55] | < 0.01 | < 0.01 | < 0.01 |  | < 0.1 | 
11 | N=C(N)c1ccc(CNC(=O)[C@H](CCc2ccccc2)NC(=O)[C@@H](CCCc2ccc[n+]([O-])c2)NS(=O)(=O)Cc2cccc(C(=O)O)c2)cc1 [compound 56] | < 0.01 | < 0.01 | < 0.01 |  | < 1 | 
12 | CC(C)(C)OC(=O)NCCCC[C@@H](NS(=O)(=O)Cc1ccc(C(=O)O)cc1)C(=O)N[C@@H](Cc1cccc(CN)c1)C(=O)NCc1ccc(C(=N)N)cc1 [compound 58] | < 0.1 | < 1 | < 0.01 |  | > 1 | 
13 | N=C(N)c1ccc(CNC(=O)[C@H](Cc2cccc(CN)c2)NC(=O)[C@@H](CCCCN)NS(=O)(=O)Cc2ccccc2)cc1 [compound 59] | < 0.1 | < 1 | < 0.01 |  | > 1 | 
14 | CC(C)(C)OC(=O)NC[C@@H](NS(=O)(=O)Cc1ccccc1)C(=O)N[C@@H](Cc1cccc(CN)c1)C(=O)NCc1ccc(C(=N)N)cc1 [compound 60] | < 0.1 | < 1 | < 0.01 |  | > 1 | 
15 | COC(=O)c1ccc(CS(=O)(=O)N[C@H](COC(C)(C)C)C(=O)N[C@@H](Cc2cccc(CN)c2)C(=O)NCc2ccc(C(=N)N)cc2)cc1 [compound 64] | < 0.01 | > 1 | < 0.01 | < 0.001 | > 1 | 
16 | CC(C)(C)OC[C@@H](NS(=O)(=O)Cc1cccc(C(=O)O)c1)C(=O)N[C@@H](Cc1cccc(CN)c1)C(=O)NCc1ccc(C(=N)N)cc1 [compound 67] | < 0.01 | < 0.1 | < 0.01 |  | > 1 | 
17 | N=C(N)c1ccc(CNC(=O)[C@H](Cc2cccc(CN)c2)NC(=O)[C@@H](CO)NS(=O)(=O)Cc2ccccc2)cc1 [compound 68] | < 0.1 | > 1 | < 0.01 |  | > 1 | 
18 | N=C(N)c1ccc(CNC(=O)[C@H](CCc2cccc(CN)c2)NC(=O)[C@@H](CO)NS(=O)(=O)Cc2ccccc2)cc1 [compound 74] | < 0.1 | > 1 | < 0.1 |  | > 1 | 
19 | N=C(N)c1ccc(CNC(=O)[C@H](Cc2ccc(C(=N)N)cc2)NC(=O)[C@@H](CO)NS(=O)(=O)Cc2ccccc2)cc1 [compound 76] | < 0.1 | > 1 | < 0.1 |  | > 1 | 
20 | N=C(N)c1ccc(CC[C@H](NC(=O)[C@@H](CO)NS(=O)(=O)Cc2ccccc2)C(=O)NCc2ccc(C(=N)N)cc2)cc1 [compound 78] | < 0.1 | > 1 | < 0.01 |  | > 1 | 
21 | Bzls-d-Gly(3-O-Phpr)-Phe(3-Ame)-4-Amba×2 TFA [compound 6] | < 0.01 | < 0.1 | < 0.01 |  | < 1 | 

Results, then the compound that gave them:

Row | Ki (plasmin; [1]) [µM] | Ki (Xa) [µM] | Ki (plasma kallikrein; [2]) [µM] | Ki (plasma kallikrein; [3]) [µM] | Ki (Thrombin) [µM] | Ki (plasmin; summary of results, read-out: Ki value of the plasmin inhibition) [µM] | Compound
22 | < 0.01 | < 0.1 | < 0.1 |  | < 0.01 |  | N=C(N)c1ccc(CNC(=O)[C@H](CCc2ccncc2)NC(=O)[C@@H](CC2CCCCC2)NS(=O)(=O)Cc2ccccc2)cc1 [compound 43]
23 | < 0.01 | < 0.1 | < 0.01 |  | < 0.1 |  | N=C(N)c1ccc(CNC(=O)[C@H](CCc2ccccc2)NC(=O)[C@@H](CCCc2ccncc2)NS(=O)(=O)Cc2ccccc2)cc1 [compound 49]
24 | < 0.01 | < 0.1 | < 0.01 |  | < 1 |  | N=C(N)c1ccc(CNC(=O)[C@H](CCc2ccccc2)NC(=O)[C@@H](CCCc2ccncc2)NS(=O)(=O)Cc2cccc(C(=O)O)c2)cc1 [compound 50]
25 | < 0.01 | < 0.01 | < 0.01 |  | < 0.01 |  | N=C(N)c1ccc(CNC(=O)[C@H](CCc2ccccc2)NC(=O)[C@@H](CCCc2cccnc2)NS(=O)(=O)Cc2ccccc2)cc1 [compound 51]
26 | < 0.01 | < 0.01 | < 0.01 |  | < 0.1 |  | N=C(N)c1ccc(CNC(=O)[C@H](CCc2ccccc2)NC(=O)[C@@H](CCCc2cc[n+]([O-])cc2)NS(=O)(=O)Cc2ccccc2)cc1 [compound 53]
27 | < 0.01 | < 0.1 | < 0.01 |  | > 1 |  | N=C(N)c1ccc(CNC(=O)[C@H](CCc2ccccc2)NC(=O)[C@@H](CCCc2cc[n+]([O-])cc2)NS(=O)(=O)Cc2cccc(C(=O)O)c2)cc1 [compound 54]
28 | < 0.01 | < 0.1 | < 0.01 |  | > 1 |  | CC(C)(C)OC(=O)NCCCC[C@@H](NS(=O)(=O)Cc1ccccc1)C(=O)N[C@@H](Cc1cccc(CN)c1)C(=O)NCc1ccc(C(=N)N)cc1 [compound 57]
29 | < 0.1 | > 1 | < 0.01 |  | > 1 |  | N=C(N)c1ccc(CNC(=O)[C@H](Cc2cccc(CN)c2)NC(=O)[C@@H](CN)NS(=O)(=O)Cc2ccccc2)cc1 [compound 61]
30 | < 0.01 | < 1 | < 0.01 |  | < 1 |  | CC(C)(C)OC(=O)NCCCC[C@@H](NS(=O)(=O)Cc1ccccc1)C(=O)N[C@@H](CCc1ccncc1)C(=O)NCc1ccc(C(=N)N)cc1 [compound 62]
31 | < 0.01 | < 1 | < 0.01 |  | < 1 |  | CC(C)(C)OC[C@@H](NS(=O)(=O)Cc1ccccc1)C(=O)N[C@@H](Cc1cccc(CN)c1)C(=O)NCc1ccc(C(=N)N)cc1 [compound 63]
32 | < 0.1 | < 1 | < 0.01 | < 0.001 | > 1 |  | CC(C)(C)OC[C@@H](NS(=O)(=O)Cc1ccc(C(=O)O)cc1)C(=O)N[C@@H](Cc1cccc(CN)c1)C(=O)NCc1ccc(C(=N)N)cc1 [compound 65]
33 | < 0.01 | < 0.1 | < 0.01 |  | > 1 |  | COC(=O)c1cccc(CS(=O)(=O)N[C@H](COC(C)(C)C)C(=O)N[C@@H](Cc2cccc(CN)c2)C(=O)NCc2ccc(C(=N)N)cc2)c1 [compound 66]
34 | < 0.1 | > 1 | < 0.01 |  | > 1 |  | COC(=O)c1ccc(CS(=O)(=O)N[C@H](CO)C(=O)N[C@@H](Cc2cccc(CN)c2)C(=O)NCc2ccc(C(=N)N)cc2)cc1 [compound 69]
35 | < 0.1 | > 1 | < 0.01 |  | > 1 |  | N=C(N)c1ccc(CNC(=O)[C@H](Cc2cccc(CN)c2)NC(=O)[C@@H](CO)NS(=O)(=O)Cc2ccc(C(=O)O)cc2)cc1 [compound 70]
36 | < 0.1 | < 1 | < 0.1 |  | < 0.1 |  | CC(C)(C)OC[C@@H](NS(=O)(=O)Cc1ccccc1)C(=O)N[C@@H](CCc1cccc(CN)c1)C(=O)NCc1ccc(C(=N)N)cc1 [compound 73]
37 | < 0.01 | < 1 | < 0.01 |  | < 0.1 |  | CC(C)(C)OC[C@@H](NS(=O)(=O)Cc1ccccc1)C(=O)N[C@@H](CCc1ccc(C(=N)N)cc1)C(=O)NCc1ccc(C(=N)N)cc1 [compound 77]
